This passage reports MIC results from US6911442B1, “Quinoline derivatives as antibacterials” (SmithKline Beecham p.l.c., priority 1999, dated 2005).

In the assay the test system is S. aureus Oxford, S. aureus WCUH29, S. aureus Carter 37, E. faecalis I, M. catarrhalis Ravasio, S. pneumoniae R6. The experiment in a line: MIC of test compounds against various organisms. The following applies: against one or more of S. aureus Oxford. The class given is cell-based. Here is the method: The MIC (μg/ml) of test compounds against various organisms was determined: S. aureus Oxford, S. aureus WCUH29, S. aureus Carter 37, E. faecalis I, M. catarrhalis Ravasio, S. pneumoniae R6.

Read-outs that look alike come from different tables or passages of the source.

Take `CCCCCCCN1CCN(C[C@H](O)c2ccnc3ccc(OC)cc23)[C@H](CC(=O)O)C1.O=C(O)C(F)(F)F.O=C(O)C(F)(F)F.O=C(O)C(F)(F)F` [Example 11, [3R]-3-Carboxymethyl-1-heptyl-4-[2-(R)-hydroxy-2-(6-methoxyquinolin-4-yl)ethyl]piperazine tris(trifluoroacetate)]: where the note is “read-out: MIC”, the MIC (commonly the lowest concentration that inhibits growth of the organism) is not above 16 µg/mL.

Turning to `CCCCCCCN1CCN(CC(O)c2ccnc3ccc(OC)cc23)[C@@H](CCO)C1.O=C(O)C(=O)O.O=C(O)C(=O)O` (stereo partly drawn) [Example 12, [3S]-1-Heptyl-3-[2-hydroxyetbyl]-4-[2-(R,S)hydroxy-2-(6-methoxyquinolin-4-yl)ethyl]piperazine dioxalate], the MIC entry was “less than or equal to 1 μg/ml”.

With `COc1ccc2nccc([C@@H](O)CN3CCN(CCCOc4ccccc4)CC3)c2c1` [Example 33, 1-(3-phenoxypropyl)-4-[2-(R)-hydroxy-2-(6-methoxyquinolin-4-yl)ethyl]piperazine], the MIC (read-out: MIC) was not above 16 µg/mL.
